Source: ChEMBL document CHEMBL5338730, “Metabolism-Guided Selective Androgen Receptor Antagonists: Design, Synthesis, and Biological Evaluation for Activity against Enzalutamide-Resistant Prostate Cancer” (J Med Chem, 2023)

Tests used:
in vitro = conditions: mouse, microsomes
Description: Half life in mouse liver microsomes at 50 uM measured for 60 mins in presence of NADP+

[1] = mouse, microsomes, 1 h, 50 µM

Compound	half-life at 1 h, 50 µM (in vitro)	CLH [1]
C[C@](O)(CS(=O)(=O)c1ccc(F)cc1)C(=O)Nc1ccc(C#N)c(C(F)(F)F)c1 [(R)-BICALUTAMIDE]	10 h	
C[C@](O)(COc1ccc(C#N)cc1)C(=O)Nc1ccc(C#N)c(C(F)(F)F)c1 [ENOBOSARM]		1400 µL/min/mg
